Laboratory results taken from PMC9675044 (Journal of medicinal chemistry, 2022).

How the values were obtained:
HeLa cells = test: Quantitative phosphoproteomic analysis; type: cell-based, human; settings: 30 min, 100 μM (LIMKi3, TH470) or 1 mM (TH257) as printed; for Significantly regulated phosphosites: p<0.01
[1] = test system: more than 200 full-length kinases in Hela cell lysate; test: Kinobead pulldown assay in cellular lysate; type: binding, human; settings: dose–response 30 μM to 1 nM
468 kinases = test: KINOMEscan scanMAX kinase selectivity panel; type: binding, human

## CC(C)C(=O)Nc1ncc(-c2cc(C(F)F)nn2-c2c(Cl)cccc2Cl)s1 [Compound 1, reference compound]
HeLa cells
  Downregulated phosphosites: 173 sites
  Upregulated phosphosites: 189 sites
  Significantly regulated phosphosites: 362 sites
[1]
  Hits identified in kinobead assay: No other hits except LIMK1 and LIMK2 were identified

## O=C(NCc1ccccc1)c1ccc(S(=O)(=O)NCc2ccccc2)cc1 [Compound 26, N-benzyl-4-(benzylsulfamoyl)benzamide]
468 kinases; screened at 1 μM, 468 kinases
  Interaction with other kinases in KINOMEscan panel: no interacting kinase
[1]
  Hits identified in kinobead assay: No other hits except LIMK1 and LIMK2 were identified

## O=C(c1ccc(S(=O)(=O)Nc2ccccc2)cc1)N(Cc1ccccc1)Cc1cn(Cc2ccccc2)nn1 [Compound 33, N-benzyl-N-[(1-benzyl-1H-1,2,3-triazol-4-yl)methyl]-4-(phenylsulfamoyl)benzamide]
468 kinases; selectivity profiling
  Additional off-targets identified besides LIMK1/2: four

## CC(C)C(=O)Nc1ncc(C(=O)NCCN(Cc2ccccc2)C(=O)c2ccc(S(=O)(=O)Nc3ccccc3)cc2)s1 [Compound 48, N-benzyl-N-(2-{[2-(2-methylpropanamido)-1,3-thiazol-5-yl]formamido}ethyl)-4-(phenylsulfamoyl)benzamide]
HeLa cells
  Downregulated phosphosites: 193 sites
  Upregulated phosphosites: 146 sites
  Significantly regulated phosphosites: 339 sites
[1]
  Hits identified in kinobead assay: No other hits except LIMK1 and LIMK2 were identified
